Results published in ChEMBL document CHEMBL1132555, “Tyrosine kinase inhibitors. 16. 6,5,6-tricyclic benzothieno[3, 2-d]pyrimidines and pyrimido[5,4-b-] and -[4,5-b]ĭndoles as potent inhibitors of the epidermal growth factor receptor tyrosine kinase” (J Med Chem, 1999).
Values belong to the molecule of their own block, whether it stands above or below them.

Tests used:
[1] = molecular target: T1, Epidermal growth factor receptor (Homo sapiens, UniProt P00533)
Description: Concentration needed to inhibit the phosphorylation of a 14-residue fragment of phospholipase C-gamma1 by Epidermal growth factor receptor (prepared from human A431 carcinoma cell vesicles by immunoaffinity chromatography)

[2] = molecular target: Fibroblast growth factor receptor (Homo sapiens) (UniProt P22607+P11362+P22455+P21802); assay: Inhibition of Fibroblast growth factor receptor at 50 uM; type: protein assay
Sequence of Fibroblast growth factor receptor (Homo sapiens) (P11362 whole entry, looked up): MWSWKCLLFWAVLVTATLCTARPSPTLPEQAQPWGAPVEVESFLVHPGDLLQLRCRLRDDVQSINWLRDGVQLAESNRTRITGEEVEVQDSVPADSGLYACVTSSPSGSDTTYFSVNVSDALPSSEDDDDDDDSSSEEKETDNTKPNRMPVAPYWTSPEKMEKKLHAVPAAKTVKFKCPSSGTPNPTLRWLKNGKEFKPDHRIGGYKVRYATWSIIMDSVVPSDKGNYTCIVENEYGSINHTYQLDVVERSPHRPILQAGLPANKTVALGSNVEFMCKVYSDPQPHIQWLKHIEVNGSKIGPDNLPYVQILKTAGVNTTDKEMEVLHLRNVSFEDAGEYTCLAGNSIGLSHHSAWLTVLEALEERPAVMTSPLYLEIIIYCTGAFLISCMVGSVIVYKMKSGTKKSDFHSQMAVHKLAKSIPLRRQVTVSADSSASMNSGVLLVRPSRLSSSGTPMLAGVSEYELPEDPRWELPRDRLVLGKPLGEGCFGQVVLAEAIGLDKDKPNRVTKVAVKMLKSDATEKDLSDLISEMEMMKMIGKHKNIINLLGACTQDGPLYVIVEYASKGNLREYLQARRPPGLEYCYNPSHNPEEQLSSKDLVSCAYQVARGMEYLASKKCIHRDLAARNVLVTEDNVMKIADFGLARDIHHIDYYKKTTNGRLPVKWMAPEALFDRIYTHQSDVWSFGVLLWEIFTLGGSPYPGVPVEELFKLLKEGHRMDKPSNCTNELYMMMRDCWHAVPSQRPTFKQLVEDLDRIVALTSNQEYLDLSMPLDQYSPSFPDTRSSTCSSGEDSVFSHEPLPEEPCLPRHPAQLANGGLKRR
Sequence of Fibroblast growth factor receptor (Homo sapiens) (P21802 whole entry, looked up): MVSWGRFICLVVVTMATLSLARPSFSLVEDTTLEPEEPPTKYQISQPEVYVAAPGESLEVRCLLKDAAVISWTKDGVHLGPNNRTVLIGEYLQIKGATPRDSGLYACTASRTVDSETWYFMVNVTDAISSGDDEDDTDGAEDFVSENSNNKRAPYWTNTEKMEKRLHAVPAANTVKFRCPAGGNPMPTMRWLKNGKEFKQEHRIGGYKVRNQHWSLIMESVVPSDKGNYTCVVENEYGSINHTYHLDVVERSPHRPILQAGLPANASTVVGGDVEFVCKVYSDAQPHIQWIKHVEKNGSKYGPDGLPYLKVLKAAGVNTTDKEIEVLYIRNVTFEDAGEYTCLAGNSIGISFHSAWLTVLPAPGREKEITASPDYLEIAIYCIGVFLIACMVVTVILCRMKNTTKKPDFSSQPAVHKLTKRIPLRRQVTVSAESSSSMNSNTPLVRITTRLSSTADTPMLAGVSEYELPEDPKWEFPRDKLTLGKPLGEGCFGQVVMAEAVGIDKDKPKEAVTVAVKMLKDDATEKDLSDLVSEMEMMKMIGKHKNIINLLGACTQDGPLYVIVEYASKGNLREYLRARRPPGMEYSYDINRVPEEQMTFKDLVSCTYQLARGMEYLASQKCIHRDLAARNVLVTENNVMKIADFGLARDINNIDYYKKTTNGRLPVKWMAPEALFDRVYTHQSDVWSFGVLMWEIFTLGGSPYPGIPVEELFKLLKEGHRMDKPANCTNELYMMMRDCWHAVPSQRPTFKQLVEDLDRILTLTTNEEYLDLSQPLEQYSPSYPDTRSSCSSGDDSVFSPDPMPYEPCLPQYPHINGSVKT
Sequence of Fibroblast growth factor receptor (Homo sapiens) (P22455 whole entry, looked up): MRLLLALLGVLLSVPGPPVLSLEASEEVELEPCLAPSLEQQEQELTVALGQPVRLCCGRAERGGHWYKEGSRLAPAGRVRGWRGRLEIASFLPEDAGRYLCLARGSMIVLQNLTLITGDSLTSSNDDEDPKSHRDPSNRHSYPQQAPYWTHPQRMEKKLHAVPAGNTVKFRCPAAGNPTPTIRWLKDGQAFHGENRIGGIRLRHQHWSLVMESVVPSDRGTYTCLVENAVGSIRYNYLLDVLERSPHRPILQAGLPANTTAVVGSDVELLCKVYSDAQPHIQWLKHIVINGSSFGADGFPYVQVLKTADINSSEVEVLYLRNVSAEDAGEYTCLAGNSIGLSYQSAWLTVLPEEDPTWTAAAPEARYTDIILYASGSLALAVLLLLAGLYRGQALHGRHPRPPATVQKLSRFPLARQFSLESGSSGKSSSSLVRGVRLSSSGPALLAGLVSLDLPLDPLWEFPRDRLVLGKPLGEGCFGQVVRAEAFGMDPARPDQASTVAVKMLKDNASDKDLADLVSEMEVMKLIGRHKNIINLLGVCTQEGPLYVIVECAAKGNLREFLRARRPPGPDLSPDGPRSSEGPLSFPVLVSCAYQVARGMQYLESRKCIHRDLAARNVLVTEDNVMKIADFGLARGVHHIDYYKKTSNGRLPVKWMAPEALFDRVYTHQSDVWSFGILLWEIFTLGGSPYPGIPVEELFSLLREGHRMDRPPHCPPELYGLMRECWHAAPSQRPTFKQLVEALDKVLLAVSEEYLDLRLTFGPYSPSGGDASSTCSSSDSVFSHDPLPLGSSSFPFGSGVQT
Sequence of Fibroblast growth factor receptor (Homo sapiens) (P22607 whole entry, looked up): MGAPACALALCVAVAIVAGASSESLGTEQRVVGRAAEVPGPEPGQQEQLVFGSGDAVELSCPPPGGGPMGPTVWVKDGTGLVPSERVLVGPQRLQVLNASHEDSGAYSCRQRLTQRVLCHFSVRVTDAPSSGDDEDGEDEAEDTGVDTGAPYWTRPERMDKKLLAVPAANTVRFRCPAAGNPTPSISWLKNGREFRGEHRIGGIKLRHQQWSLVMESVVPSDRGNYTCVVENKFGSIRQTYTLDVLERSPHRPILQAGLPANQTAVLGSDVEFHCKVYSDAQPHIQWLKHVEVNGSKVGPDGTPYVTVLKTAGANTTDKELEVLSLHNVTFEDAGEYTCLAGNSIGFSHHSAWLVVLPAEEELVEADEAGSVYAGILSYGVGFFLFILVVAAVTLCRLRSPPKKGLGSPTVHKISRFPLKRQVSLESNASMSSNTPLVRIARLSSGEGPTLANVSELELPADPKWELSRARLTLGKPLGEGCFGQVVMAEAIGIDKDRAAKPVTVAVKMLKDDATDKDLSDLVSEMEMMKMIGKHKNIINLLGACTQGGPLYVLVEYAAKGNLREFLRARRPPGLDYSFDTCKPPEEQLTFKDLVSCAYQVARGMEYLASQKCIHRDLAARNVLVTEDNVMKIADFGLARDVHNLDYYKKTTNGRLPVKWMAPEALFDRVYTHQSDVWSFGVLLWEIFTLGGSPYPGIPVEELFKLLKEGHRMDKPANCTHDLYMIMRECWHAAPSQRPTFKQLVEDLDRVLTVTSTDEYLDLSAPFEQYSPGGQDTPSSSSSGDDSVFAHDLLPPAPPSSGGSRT

[3] = molecular target: Insulin receptor (Homo sapiens) (UniProt P06213); assay: Inhibition against Insulin receptor kinase at 50 uM
[4] = Inhibition of Platelet-derived growth factor receptor at 50 uM
[5] = molecular target: Protein kinase C (PKC) (Homo sapiens) (UniProt O94806+P41743+P17252+P05129+Q05655+P05771+Q05513+Q02156+P24723+Q15139+Q04759); assay: Inhibition of Protein kinase C at 50 uM; type: protein assay
[6] = molecular target: Proto-oncogene tyrosine-protein kinase Src (Homo sapiens) (UniProt P12931); assay: Inhibition of c-Src tyrosine kinase at 50 uM
Sequence of Proto-oncogene tyrosine-protein kinase Src (Homo sapiens) (P12931 2-536 limits assumed): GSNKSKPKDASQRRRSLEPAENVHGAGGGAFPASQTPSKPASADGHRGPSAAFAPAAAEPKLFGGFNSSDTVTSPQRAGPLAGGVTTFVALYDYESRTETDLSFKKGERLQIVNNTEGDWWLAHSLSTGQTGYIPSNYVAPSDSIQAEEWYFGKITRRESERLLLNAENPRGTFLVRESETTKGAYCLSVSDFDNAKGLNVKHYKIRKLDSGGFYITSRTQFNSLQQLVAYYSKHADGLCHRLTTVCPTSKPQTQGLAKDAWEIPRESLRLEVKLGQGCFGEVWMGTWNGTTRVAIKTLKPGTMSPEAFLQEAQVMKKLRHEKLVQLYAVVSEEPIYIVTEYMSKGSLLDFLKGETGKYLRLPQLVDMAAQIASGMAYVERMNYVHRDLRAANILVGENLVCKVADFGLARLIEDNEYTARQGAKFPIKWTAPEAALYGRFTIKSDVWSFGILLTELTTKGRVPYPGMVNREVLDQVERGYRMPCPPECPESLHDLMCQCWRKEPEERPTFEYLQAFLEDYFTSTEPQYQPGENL

[7] = molecular target: T1, Epidermal growth factor receptor; assay: Inhibition of Epidermal growth factor receptor autophosphorylation in A431 cells
[8] = molecular target: Proto-oncogene tyrosine-protein kinase Src (Homo sapiens) (UniProt P12931); assay: Inhibition against c-Src tyrosine kinase at 1.25 uM

T1 sequence (P00533 whole entry): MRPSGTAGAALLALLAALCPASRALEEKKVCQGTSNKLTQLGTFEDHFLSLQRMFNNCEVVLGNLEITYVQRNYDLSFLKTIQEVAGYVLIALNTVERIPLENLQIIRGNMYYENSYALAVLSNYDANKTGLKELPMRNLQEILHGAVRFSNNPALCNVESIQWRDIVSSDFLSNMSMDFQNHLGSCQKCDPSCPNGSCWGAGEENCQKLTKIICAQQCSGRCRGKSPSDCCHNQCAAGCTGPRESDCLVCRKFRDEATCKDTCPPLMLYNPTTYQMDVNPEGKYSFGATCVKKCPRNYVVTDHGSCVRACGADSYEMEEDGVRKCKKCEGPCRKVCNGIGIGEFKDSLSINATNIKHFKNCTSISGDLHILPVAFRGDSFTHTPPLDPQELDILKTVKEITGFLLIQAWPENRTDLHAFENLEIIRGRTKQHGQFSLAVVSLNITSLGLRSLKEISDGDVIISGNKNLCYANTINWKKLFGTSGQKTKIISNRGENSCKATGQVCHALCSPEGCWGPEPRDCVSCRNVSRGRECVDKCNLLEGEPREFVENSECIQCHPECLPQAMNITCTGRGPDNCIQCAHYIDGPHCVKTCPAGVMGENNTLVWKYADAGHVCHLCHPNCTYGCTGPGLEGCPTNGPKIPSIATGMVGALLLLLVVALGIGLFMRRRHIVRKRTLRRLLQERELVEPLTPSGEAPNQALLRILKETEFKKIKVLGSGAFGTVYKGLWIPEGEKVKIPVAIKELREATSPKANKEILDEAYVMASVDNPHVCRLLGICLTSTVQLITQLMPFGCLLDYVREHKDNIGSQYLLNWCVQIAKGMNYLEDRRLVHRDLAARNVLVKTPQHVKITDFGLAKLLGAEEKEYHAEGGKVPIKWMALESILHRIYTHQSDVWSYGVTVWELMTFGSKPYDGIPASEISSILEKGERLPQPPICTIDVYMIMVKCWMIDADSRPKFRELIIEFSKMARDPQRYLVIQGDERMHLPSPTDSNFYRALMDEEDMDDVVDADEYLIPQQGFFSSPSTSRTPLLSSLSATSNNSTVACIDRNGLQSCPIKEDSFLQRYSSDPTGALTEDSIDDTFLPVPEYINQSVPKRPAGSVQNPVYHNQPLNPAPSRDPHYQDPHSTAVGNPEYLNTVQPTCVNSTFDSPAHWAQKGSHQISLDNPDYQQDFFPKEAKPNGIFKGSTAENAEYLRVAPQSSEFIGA

SMILES: C[C@H](Nc1ncnc2c1sc1ccccc12)c1ccccc1
inhibition [2]: 20%
inhibition [3]: 13%
inhibition [4]: 0%
inhibition [5]: 7%
inhibition [6]: 0%
IC50 [1]: 538 nM

SMILES: O=[N+]([O-])c1ccc2sc3c(Nc4ccccc4)ncnc3c2c1
IC50 [1]: 58 nM

SMILES: Nc1nc(Nc2cccc(Br)c2)c2c(n1)[nH]c1ccccc12
IC50 [7]: 493 nM
IC50 [1]: 147 nM

SMILES: O=[N+]([O-])c1ccc2sc3c(Nc4cccc(C(F)(F)F)c4)ncnc3c2c1
IC50 [1]: 460 nM

SMILES: Cc1cccc(Nc2ncnc3c2sc2ccc(N)cc23)c1
IC50 [7]: 98 nM
inhibition [2]: 24%
inhibition [3]: 14%
inhibition [4]: 17%
inhibition [5]: 44%
inhibition [6]: 47%
IC50 [1]: 2.1 nM

SMILES: COc1cccc2sc3c(Nc4cccc(Br)c4)ncnc3c12
IC50 [1]: 20 nM

SMILES: Nc1cccc2c1sc1c(Nc3cccc(Br)c3)ncnc12
IC50 [1]: 2.7 nM

SMILES: CNc1ccc2sc3c(Nc4cccc(Br)c4)ncnc3c2c1
IC50 [7]: 33 nM
IC50 [1]: 1.1 nM

SMILES: Nc1ccc2sc3c(Nc4cccc(Br)c4)ncnc3c2c1
inhibition [3]: 0%
inhibition [5]: 0%

SMILES: O=[N+]([O-])c1ccc2c(c1)sc1c(Nc3cccc(Br)c3)ncnc12
IC50 [1]: 48 nM

SMILES: c1ccc(CNc2ncnc3c2sc2ccccc23)cc1
inhibition [2]: 11%
inhibition [3]: 0%
inhibition [4]: 10%
inhibition [6]: 0%

SMILES: O=[N+]([O-])c1cccc2c1sc1c(Nc3cccc(Br)c3)ncnc12
IC50 [1]: 158 nM

SMILES: COc1cccc2c1sc1c(Nc3cccc(Br)c3)ncnc12
IC50 [1]: 12.6 nM

SMILES: Cc1cccc(Nc2ncnc3c2sc2ccc([N+](=O)[O-])cc23)c1
IC50 [1]: 11 nM

SMILES: Nc1ccc2c(c1)sc1c(Nc3cccc(Br)c3)ncnc12
IC50 [1]: 0.47 nM

SMILES: CN(C)c1ccc2sc3c(Nc4cccc(Br)c4)ncnc3c2c1
IC50 [1]: 19.8 nM

SMILES: CN(C)CCNc1[nH]cnc2nc3ccccc3c1-2
IC50 [1]: > 10000 nM

SMILES: Cc1nc(Nc2cccc(Br)c2)c2c(n1)[nH]c1ccccc12
IC50 [1]: > 10000 nM

SMILES: Nc1cc2sc3c(Nc4cccc(Br)c4)ncnc3c2cc1F
IC50 [7]: 42 nM
IC50 [1]: 1 nM

SMILES: Brc1cccc(Nc2ncnc3sccc23)c1
IC50 [1]: 35 nM

SMILES: Brc1cccc(Nc2ncnc3cc4[nH]ccc4cc23)c1
IC50 [1]: 0.39 nM

SMILES: c1ccc2c(c1)[nH]c1c(NC3CCCCC3)ncnc12
IC50 [1]: > 100000 nM

SMILES: Cn1c2ccccc2c2c(Nc3cccc(Br)c3)ncnc21
IC50 [7]: 769 nM
IC50 [1]: 742 nM

More lines, now with the values ahead:

IC50 [1]: > 100000 nM
SMILES: C[C@@H](Nc1[nH]cnc2c3ccccc3nc1-2)c1ccccc1

IC50 [7]: 13 nM
inhibition [2]: 30%
inhibition [3]: 0%
inhibition [4]: 2%
IC50 [1]: 1.2 nM
inhibition [8]: 8%
SMILES: COc1ccc2[nH]c3ncnc(Nc4cccc(Br)c4)c3c2c1

inhibition [2]: 19%
inhibition [3]: 0%
inhibition [4]: 21%
inhibition [5]: 20%
inhibition [6]: 22%
SMILES: COc1ccc2c(c1)sc1c(Nc3cccc(Br)c3)ncnc12

inhibition [2]: 17%
inhibition [3]: 0%
inhibition [4]: 12%
inhibition [5]: 51%
inhibition [6]: 13%
IC50 [1]: 47 nM
SMILES: Nc1ccc2sc3c(Nc4cccc(C(F)(F)F)c4)ncnc3c2c1

inhibition [2]: 21%
inhibition [3]: 0%
inhibition [4]: 0%
inhibition [5]: 18%
inhibition [6]: 0%
SMILES: Brc1cccc(Nc2ncnc3c2sc2ccccc23)c1

IC50 [1]: > 100000 nM
SMILES: CN(C)CCNc1[nH]cnc2c3ccccc3nc1-2

IC50 [1]: > 1000 nM
SMILES: Clc1cccc(Nc2ncnc3c2sc2ncccc23)c1

IC50 [1]: 1 nM
SMILES: Cc1cccc(Nc2cc(NCCO)ncn2)c1

IC50 [7]: 85 nM
IC50 [1]: 7.9 nM
SMILES: CCNc1cc2sc3c(Nc4cccc(Br)c4)ncnc3c2cc1F

IC50 [1]: 444 nM
SMILES: COc1cc2sc3c(Nc4cccc(Br)c4)ncnc3c2cc1OC
